Test [1] deals with retinal lesion (wet-AMD) induced by laser photocoagulation. Nature of the test: Lesion volume in laser-induced CNV wet-AMD mouse model (FITC-dextran, Z-stack 3D imaging). The format is in vivo. The settings on record: for efficacy on lesion compared with positive control anti-VEGF agent (FIG. 1) / lesion formation / lesion volume (FIG. 1): oral, from 6 days before and for 7 days after inducing wet-AMD; for efficacy on lesion compared with positive control anti-VEGF agent (FIG. 1): Eylea injected into the eye as positive control; for lesion formation / lesion volume (FIG. 1): male C57BL/6 mice. As for the experimental part:
Male C57BL/6 mice were anesthetized with zoletil and rompun, and a retinal lesion (wet-AMD) was induced by performing three laser photocoagulations at the 2 o'clock, 6 o'clock, and 10 o'clock positions at on the retina of the mouse eye under a slit-lamp microscope. Each of Compound 1-2 and Compound 1-18 was administered orally starting from 6 days before inducing wet-AMD, and was administered orally for 7 days after inducing the disease. Eylea (Bayer, Germany), used as a positive control, was administered by direct injection into the eye immediately after induction of the disease model.
After weighing each mouse, FITC-dextran (SIGMA, #46944) diluted in saline at a concentration of 5 mg/kg was injected into the tail veins of the mice to which each of Compound 1-2 and Compound 1-18 has been administered for 7 days after inducing the wet-AMD model. 3D images of the lesions were obtained using the Z-stack imaging technique, and the volumes of the lesions on the images were quantitatively measured.
Changes after administering Compound 1-2 for 7 days after induction of the disease without administration before induction of the disease to the wet-AMD mouse model induced in the same manner as in Experimental Example 1 were analyzed. In the same manner as Experimental Example 1, the image of the lesion was obtained and the volume of the lesion was quantified.
Changes after co-administering Compound 1-2 and the anti-VEGF agent (Eylea) for 7 days after induction of the disease without administration before induction of the disease to the wet-AMD mouse model induced in the same manner as in Experimental Example 1 were analyzed. In the same manner as Experimental Example 1, the image of the lesion was obtained and the volume of the lesion was quantified.
Changes after administering Compound 1-2 at concentrations of 25, 50 and 100 mg/kg for 7 days after induction of the disease without administration of Compound 1-2 before induction of the disease to the wet-AMD mouse model induced in the same manner as in Experimental Example 1 were analyzed. In the same manner as Experimental Example 1, the image of the lesion was obtained and the volume of the lesion was quantified.

Test [2] deals with mitochondrial reactive oxygen species in RPE cells. Nature of the test: Mitochondrial reactive oxygen species (MitoSOX) in RPE cells from wet-AMD (CNV) animal model. The format is in vivo, mouse. As to conditions: for mitochondrial reactive oxygen species in RPE cells (FIG. 2) / efficacy on mitochondrial reactive oxygen species compared with positive control anti-VEGF agent (FIG. 2): oral, from 6 days before and for 7 days after inducing wet-AMD; for efficacy on mitochondrial reactive oxygen species compared with positive control anti-VEGF agent (FIG. 2): Eylea as positive control. From the text:
(§1) RPE cells were isolated from the same model as in Experimental […] changes in mitochondrial reactive oxygen species in the RPE cells were examined through fluorescence microscopy. Specifically, immediately after enucleation of the mouse eye, mitochondria and nuclei were stained using the MitoSOX™ (Invitrogen, #M36008) kit and imaged with a fluorescence microscope at a fluorescence wavelength of 510/580 nm, and changes in reactive oxygen species in the mitochondria were measured.
RPE cells were isolated from the same model as in Experimental Example 3 and stained with MitoSOX, and changes in mitochondrial reactive oxygen species in the RPE cells were examined through fluorescence microscopy. Measurement was performed in the same manner as in Experimental Example 2.
RPE cells were isolated from the same model as in Experimental Example 5 and stained with MitoSOX, and changes in mitochondrial reactive oxygen species in the RPE cells were examined through fluorescence microscopy. Measurement was performed in the same manner as in Experimental Example 2.
RPE cells were isolated from the same model as in Experimental Example 7 and stained with MitoSOX, and changes in mitochondrial reactive oxygen species in the RPE cells were examined through fluorescence microscopy. Measurement was performed in the same manner as in Experimental Example 2.

Test [3] concerns lesion in the eyeball, Alu-RNA dry-AMD model. The test is described as follows: Fundus photography of eyeball lesion in Alu-RNA animal model (dry-AMD). It is filed as in vivo, mouse. As to conditions: oral, from 6 days before and for 7 days after induction of dry-AMD (1.2 μg Alu-RNA subretinal). The protocol:
(§2) Male C57BL/6 mice were anesthetized, and a lesion was induced by making a hole in the corneal limbus of the mouse eye and injecting 1.2 μg of Alu-RNA into the subretinal space by a Hamilton syringe. Each of Compound 1-2 and Compound 1-18 was administered orally starting from 6 days before induction of the dry-AMD model, and was administered orally for 7 days after induction of the disease. To evaluate the dry-AMD preventive and therapeutic effects of each of Compound 1-2 and Compound 1-18, the morphology of the lesion was evaluated by fundus photography using TOPCON #TRC-50DX.

For a further test, the system named is RPE cytoskeleton. The test is described as follows: RPE cell structure (ZO-1 staining) in Alu-RNA animal model (dry-AMD). It is filed as in vivo, mouse. The settings on record: oral, from 6 days before and for 7 days after induction of dry-AMD. The protocol:
as §2
RPE cells were isolated from the same model as in Experimental Example 9 and stained for ZO-1, and changes in the structure of the RPE cells were examined under a fluorescence microscope (Olympus SZ51, Tokyo, Japan). Specifically, immediately after enucleation of the mouse eye, the RPE cytoskeleton was stained for zonula occludens-1 (ZO-1) and imaged with a fluorescence microscope through the Z-stack imaging technique, and changes in the RPE cytoskeleton were imaged.

In test [4] the test system is mitochondrial reactive oxygen species in RPE cells. Nature of the test: Mitochondrial reactive oxygen species (MitoSOX) in RPE cells from Alu-RNA animal model (dry-AMD). It is filed as in vivo, mouse. The settings on record: oral, from 6 days before and for 7 days after induction of dry-AMD.
Source text: as §1, §2
RPE cells were isolated from the same model as in Experimental Example 9 and stained with MitoSOX, and changes in mitochondrial reactive oxygen species in the RPE cells were examined through fluorescence microscopy. Measurement was performed in the same manner as in Experimental Example 2.

Test [5] relates to inflammation-related mRNA in RPE cells. Nature of the test: Inflammatory factor mRNA (real-time PCR) in RPE cells from Alu-RNA animal model (dry-AMD). The format is in vivo, mouse. The settings on record: oral, from 6 days before and for 7 days after induction of dry-AMD. The protocol:
as §2
RPE cells were isolated from the same model as in Experimental Example 9, and the relative expression level of inflammation-related mRNA was analyzed using real-time PCR. […] 100 pmol of oligo Dt17 primer was added to 1 μg of total RNA which was then incubated at 74° C. for 10 minutes, and then 30 U of RNAsin (RNase inhibitor), 10 U of AMV-RT (avian myeloblastosis virus-reverse transcriptase), and AMV-RT buffer (Promega, Israel) were added thereto and reacted at 42° C. for 2 hours and at 52° C. for 1 hour, thereby synthesizing cDNA from the RNA extracted from the […]. cDNA was amplified using the SYBR Premix Ex Taq kit (Takara Bio, Inc.) and the StepOnePlus Real-time PCR system (Applied Biosystems), and then mRNA expression was measured.
On the technique in general: Quantitative PCR measures a nucleic acid by following its amplification.

Where [6] appears, read: 25, 50 and 100 mg/kg for 7 days after induction of the disease.
The mark [7] stands for this setting: administered for 7 days after induction of the disease, none before induction.

Structures are written as SMILES.

As for `CCOc1ccc(C2COc3c(ccc4c3CCC(C)(C)O4)C2)c(O)c1` (stereo not shown) [Compound 1-2], the “lesion volume depending on concentration (FIG. 7)” value in test [1] (setting [6]) is reported as “reduced in a manner dependent on the concentration”. In addition, in test [1] (setting [7]), the “efficacy on lesion compared with positive control anti-VEGF agent (FIG. 3)” value was “efficacy equivalent to that of the positive control anti-VEGF agent” and the “lesion formation / lesion volume (FIG. 3)” value is on record as “suppressed formation of the lesion”. For the same molecule, in test [1], the “efficacy on lesion compared with positive control anti-VEGF agent (FIG. 1)” value is listed as “efficacy equivalent to that of the positive control anti-VEGF agent” and the “lesion formation / lesion volume (FIG. 1)” value is “inhibited lesion formation”. For the same molecule, the “efficacy in reducing mitochondrial reactive oxygen species at 100 mg/kg (FIG. 8)” value in test [2] (100 mg/kg versus 25 and 50 mg/kg, 7 days after induction of the disease) is “highest efficacy”. Further, the “mitochondrial reactive oxygen species in RPE cells depending on concentration (FIG. 8)” value in test [2] (setting [6]) was “reduced mitochondrial reactive oxygen species in a concentration-dependent manner”. Moreover, in test [2] (setting [7]), the “efficacy on mitochondrial reactive oxygen species compared with positive control anti-VEGF agent (FIG. 4)” value is listed as “efficacy equivalent to that of the positive control anti-VEGF agent” and the “mitochondrial reactive oxygen species in RPE cells (FIG. 4)” value was “reduced mitochondrial reactive oxygen species”. For the same molecule, in test [2], the “mitochondrial reactive oxygen species in RPE cells (FIG. 2)” value was “reduced mitochondrial reactive oxygen species” and the “efficacy on mitochondrial reactive oxygen species compared with positive control anti-VEGF agent (FIG. 2)” value is on record as “efficacy equivalent to that of the positive control anti-VEGF agent”. The “lesion in the eyeball by fundus photography (FIG. 9)” value in test [3] is reported as “reduced the lesion in the eyeball”. Also, the “RPE cytoskeleton, ZO-1 staining (FIG. 10)” value in the test on RPE cytoskeleton is “restored the damaged RPE cytoskeleton”. In addition, in test [4], the “mitochondrial reactive oxygen species in RPE cells (FIG. 11)” value is listed as “reduced mitochondrial reactive oxygen species”. Moreover, in test [5], the “inflammatory factors in RPE cells, relative mRNA expression (FIG. 12)” value is recorded as “effectively reduced”.
`CCCOc1ccc([C@@H]2COc3c(ccc4c3CCC(C)(C)O4)C2)c(O)c1` [Compound 1-18]: in test [1], the “efficacy on lesion compared with positive control anti-VEGF agent (FIG. 1)” value was “efficacy equivalent to that of the positive control anti-VEGF agent” and the “lesion formation / lesion volume (FIG. 1)” value is on record as “inhibited lesion formation”. In addition, in test [2], the “mitochondrial reactive oxygen species in RPE cells (FIG. 2)” value was “reduced mitochondrial reactive oxygen species” and the “efficacy on mitochondrial reactive oxygen species compared with positive control anti-VEGF agent (FIG. 2)” value is “efficacy equivalent to that of the positive control anti-VEGF agent”. Besides, in test [3], the “lesion in the eyeball by fundus photography (FIG. 9)” value is recorded as “reduced the lesion in the eyeball”. For the same molecule, the “RPE cytoskeleton, ZO-1 staining (FIG. 10)” value with RPE cytoskeleton was “restored the damaged RPE cytoskeleton”. Besides, the “mitochondrial reactive oxygen species in RPE cells (FIG. 11)” value in test [4] is “reduced mitochondrial reactive oxygen species”.

Source of the values: patent publication US20250367163A1, “PHARMACEUTICAL COMPOSITION FOR PREVENTING OR TREATING DEGENERATIVE EYE DISEASES” (GLACEUM, INC., priority 2021, published 2025).
